Measurements reported in paper PMC4785745, “Genome-wide analysis identifies gain and loss/change of function within the small multigenic insecticidal Albumin 1 family of Medicago truncatula” (BMC Plant Biology, 2016).
Bridge positions count the residues as written; N and C are the ends. Ends that are not written are not given here. Peptide text beside a SMILES is read from it.

What was measured:
PA1b binding site = assay: Ligand binding to the PA1b-binding site using 125I-PA1b; conditions: for binding to the PA1b-binding site (in words): 125I-PA1b ligand binding; for Ki: affinity to the PA1b binding site, ligand binding using 125I-PA1b, according to [12], '-' = no binding in the range assayed
Procedure: The affinity of synthetic peptides for the PA1b-binding site was determined by ligand binding using ^125I-toxin [12].

Sf9 cells = type: cell-based, Spodoptera frugiperda; conditions: for LC50: cultured Sf9 cells, 15 000 cells/well, 24 h exposure, 27 °C, CellTiter-Blue, according to Rahioui et al. [32], '-' = no toxicity in the range assayed
Procedure: Sf9 cells lines were grown at 27 °C in Lonza’s culture medium, supplemented with 5 % fetal bovine serum (FBS) and 0.1 % gentamicin. Sf9 cells were seeded, in 96-well plates, 24 h prior to the experiments (15 000 cells/well) and were exposed to increasing concentrations of synthetic peptide. After this 24 h period, cell viability was determined using the CellTiter-Blue Viability Assay (Promega), according to the manufacturer’s instructions. After addition of the dye, the cells were incubated at 27 °C for 4 h. The absorbance, at 570 and 600 nm, was then measured using a microplate reader (MR 7000, Dynatech Laboratories Inc., USA).

Sitophilus = type: in vivo; conditions: standard Sitophilus mortality assay [17]; data not shown
[1] = test system: Sf9 cell ramp membrane current; assay: Whole-cell patch-clamp: blockage of Sf9 cell ramp membrane current; type: cell-based, Spodoptera frugiperda; conditions: Sf9 cells; for EC50: whole-cell patch clamp, voltage ramps 1.5 s from −100 to 90 mV, measured at +50 mV, Hill fit with 100 % blockage as fixed maximum, mean ± S.E., n = 9 (AG41), n = 8 (PA1b), SEM, read-out: EC50, inhibition of ramp membrane current
Procedure: We further investigated the AG41’s biological activity by performing an electrophysiological experiment on cultured Sf9 cells to check whether its cell-membrane ion transport alteration differed from that of PA1b, the model pea peptide. […] At 35 nM, AG41 decreased by approximately 35 % the ramp current amplitude measured at +50 mV (from 68 pA to 44 pA), while a similar concentration of 37.5 nM PA1b had no effect (trace from AG41 even differed from control at 3.5 nM).
Current recordings were made at room temperature, under voltage clamp using the whole-cell configuration of the patch-clamp technique. Command voltage and data acquisition were performed with pClamp software (Axon Instruments, Foster city, CA, USA). The holding potential was −80 mV. Membrane currents were evoked, every 10 s, by voltage ramps of 1.5 s in duration applied from −100 to 90 mV, filtered at 300 Hz and sampled at 1 kHz with an analogue-to-digital converter (Labmaster TM 40, Scientific Solutions Inc., Solon OH, USA). The external solution contained (in mM): 135 NaCl, 4 KCl, 2 MgCl2, 10 CaCl2 and 10 Mes, adjusted to pH 6.4 with NaOH. The internal solution contained (in mM): 140 K-aspartate, 1 MgCl2, 3 K2-ATP, 5 EGTA and 5 Hepes, adjusted to pH 7.2 with KOH. Salts were purchased from Sigma-Aldrich and peptides were prepared as 60 % (v/v) ethanol stock solution as previously described.
Biological results are expressed as the mean ± S.E.M., n indicating the number of Sf9 cells studied (electrophysiology). Statistical comparisons were made using a Mann–Whitney U or Wilcoxon tests at the 95 % confidence level.

| Compound | binding to the PA1b-binding site (in words) (PA1b binding site) | Ki (PA1b binding site) | LC50 (Sf9 cells) | toxicity in Sitophilus mortality assay (in words) (Sitophilus) | effect on ramp membrane current (in words) ([1]; 37.5 nM peptide) | EC50 [1] | toxicity relative to the original pea albumin 1b (Sf9 cells; compared with PA1b, Table 1) | decrease of ramp current amplitude measured at +50 mV ([1]; 35 nM peptide) | ramp current amplitude measured at +50 mV ([1]; 35 nM peptide (control 68 pA)) |
| --- | --- | --- | --- | --- | --- | --- | --- | --- | --- |
| CC[C@H](C)[C@@H]1NC(=O)CNC(=O)[C@H](CO)NC(=O)[C@@H](NC(=O)[C@H](CC(=O)O)NC(=O)[C@H](C)N)CSSC[C@@H]2NC(=O)[C@H](CC(=O)O)NC(=O)[C@H](CO)NC(=O)[C@H](CO)NC(=O)[C@H](CCCNC(=N)N)NC(=O)[C@@H]3CSSC[C@@H](C(=O)N[C@H](C(=O)N[C@@H](CC(N)=O)C(=O)N4CCC[C@H]4C(=O)N[C@H](C(=O)N[C@@H](CO)C(=O)O)[C@@H](C)CC)[C@@H](C)CC)NC(=O)[C@H](Cc4ccccc4)NC(=O)CNC(=O)CNC(=O)[C@H]([C@@H](C)CC)NC(=O)[C@H](CC(C)C)NC(=O)[C@H](C)NC(=O)[C@H]([C@@H](C)CC)NC(=O)[C@@H]4CCCN4C(=O)[C@H]([C@@H](C)CC)NC(=O)[C@H](CSSC[C@H](NC1=O)C(=O)N[C@@H](CO)C(=O)N1CCC[C@H]1C(=O)N[C@@H](Cc1ccccc1)C(=O)N[C@@H](CCC(=O)O)C(=O)N[C@@H](CCSC)C(=O)N1CCC[C@H]1C(=O)N1CCC[C@H]1C(=O)N3)NC(=O)[C@H](CCCNC(=N)N)NC2=O [AS37] (H-ADCSGICSPFEMPPCRSSDCRCIPIALIGGFCINPIS-OH; disulfide 3-20, 7-22, 15-32 (inferred); N-terminus and C-terminus assumed) | revealed binding properties | 0.015 ± 0.002 µM | 0.107 ± 0.0032 µM | toxic |  |  |  |  |  |
| CC[C@H](C)[C@@H]1NC(=O)[C@H](Cc2ccccc2)NC(=O)[C@@H]2CSSC[C@@H]3NC(=O)[C@H](C)NC(=O)[C@H](CCC(=O)O)NC(=O)CNC(=O)[C@@H](NC(=O)[C@H](CCCCN)NC(=O)[C@H](C)N)CSSC[C@H](NC(=O)CNC(=O)[C@H](CC(=O)O)NC(=O)CNC(=O)[C@H](C)NC(=O)[C@H](CC(N)=O)NC(=O)[C@H](CSSC[C@@H](C(=O)N[C@@H](C)C(=O)N[C@@H](CCC(N)=O)C(=O)N[C@@H](CC(C)C)C(=O)N[C@@H](CO)C(=O)N[C@H](C(=O)O)[C@@H](C)O)NC(=O)[C@H](Cc4ccccc4)NC(=O)CNC(=O)[C@@H]4CCCN4C(=O)[C@H](CC(C)C)NC(=O)[C@H]([C@@H](C)O)NC(=O)[C@H](CC(C)C)NC(=O)[C@H](Cc4ccc(O)cc4)NC(=O)[C@H](C)NC(=O)[C@H](CC(=O)O)NC(=O)[C@H]([C@@H](C)O)NC1=O)NC(=O)[C@H](Cc1ccccc1)NC(=O)[C@H](CC(N)=O)NC(=O)[C@H](Cc1ccccc1)NC(=O)[C@H](CCC(N)=O)NC(=O)[C@H]([C@@H](C)O)NC(=O)[C@H](CC(=O)O)NC3=O)C(=O)N[C@@H](CCCNC(=N)N)C(=O)N2 [AS40] (H-AKCGEACDTQFNFCNAGDGCRCFITDAYLTLPGFCAQLST-OH; disulfide 3-20, 7-22, 14-35 (inferred); N-terminus and C-terminus assumed) | revealed binding properties | 0.0103 ± 0.002 µM | 0.047 ± 0.0022 µM |  |  |  |  |  |  |
| CC[C@H](C)[C@@H]1NC(=O)[C@H](C(C)C)NC(=O)[C@H](CC(C)C)NC(=O)CNC(=O)[C@H](C(C)C)NC(=O)[C@@H]2CCCN2C(=O)[C@H]([C@@H](C)CC)NC(=O)[C@@H]2CSSC[C@@H]3NC(=O)[C@H](C(C)C)NC(=O)CNC(=O)[C@H](CC(N)=O)NC(=O)[C@@H](NC(=O)[C@H](CO)NC(=O)[C@H](C)N)CSSC[C@H](NC(=O)[C@H](C)NC(=O)[C@H](CO)NC(=O)[C@H]([C@@H](C)O)NC(=O)CNC(=O)[C@H](CSSC[C@@H](C(=O)N[C@@H](CCCNC(=N)N)C(=O)N[C@@H](CC(N)=O)C(=O)N4CCC[C@H]4C(=O)N[C@@H](CO)C(=O)NCC(=O)O)NC(=O)[C@H](Cc4ccc(O)cc4)NC(=O)CNC1=O)NC(=O)[C@@H]1CCCN1C(=O)[C@@H]1CCCN1C(=O)[C@H](CCSC)NC(=O)[C@H](CCC(=O)O)NC(=O)[C@H](Cc1ccccc1)NC(=O)[C@@H]1CCCN1C(=O)[C@H](CO)NC3=O)C(=O)N[C@@H](CCCNC(=N)N)C(=O)N2 [PA1b, reference compound] (H-ASCNGVCSPFEMPPCGTSACRCIPVGLVIGYCRNPSG-OH; disulfide 3-20, 7-22, 15-32; N-terminus and C-terminus assumed) |  | 0.017 ± 0.0011 µM | 0.0798 ± 0.0036 µM |  | no effect | 0.415 ± 0.0756 µM |  |  |  |
| ASCPNVGAVCSPFETKPCGNVKDCRCLPWGLFFGTCINPTG (disulfide 3-24, 10-26, 18-36 (inferred)) [AG41] | revealed binding properties | 0.0013 ± 0.0006 µM | 0.00544 ± 0.0017 µM | highly toxic |  | 0.0146 ± 0.0004 µM | almost ten times superior | approximately 35% | 44 pA |
| DEC-W-G-PCSVLQTPP-CPLSK CYCIPLFLVVGY---CSHASS (bicyclic or more) [DS37, synthetic folded Medicago truncatula A1b peptide, cluster 1, non-canonical CYC motif] | did not present binding |  | - ((−) scores a negative result (no toxicity nor binding in the toxin range assayed)) | not toxic |  |  |  |  |  |
| EFCSSVGSFCSPFNTNPCGYLGNCRCVPYYLYGGTCENPFG (disulfide 3-24, 10-26, 18-36 (inferred)) [EG41] | revealed binding properties | 0.0728 ± 0.0027 µM | 0.075 ± 0.0031 µM |  |  |  |  |  |  |
| GQCARVGMRCSRALPNPCGDIVTCRCVHLHLVGSTCIDYTGDGL (disulfide 3-24, 10-26, 18-36) [GL44] | did not present binding | > 0.694 µM | - ((−) scores a negative result (no toxicity nor binding in the toxin range assayed)) |  |  |  |  |  |  |
